Measurements: ChEMBL document CHEMBL5038659, “Discovery of the First Examples of Threonine Tyrosine Kinase PROTAC Degraders” (J Med Chem, 2022)
Activity calls are given as the source filed them. The rule behind the calls is not given here.

How the values were obtained:
[1] = Half life in Sprague-Dawley rat at 10 mg/kg, ip by LC-MS/MS analysis; type: ADME, organism-based; conditions: in vivo
[2] = AUC in Sprague-Dawley rat at 10 mg/kg, ip by LC-MS/MS analysis; type: ADME, organism-based; set-up: dose 10 mg/kg; conditions: in vivo
[3] = target: T1, Protein cereblon/Dual specificity protein kinase TTK (Homo sapiens, UniProt P33981+Q96SW2); experiment: Protac activity at CRBN/TTK in human COLO 205 cells assessed as TTK degradation by measuring maximum degradation after 6 hrs by Western blotting analysis relative to control; type: cell-based
Target sequence in this assay (Q96SW2 whole entry, looked up, one chain of several): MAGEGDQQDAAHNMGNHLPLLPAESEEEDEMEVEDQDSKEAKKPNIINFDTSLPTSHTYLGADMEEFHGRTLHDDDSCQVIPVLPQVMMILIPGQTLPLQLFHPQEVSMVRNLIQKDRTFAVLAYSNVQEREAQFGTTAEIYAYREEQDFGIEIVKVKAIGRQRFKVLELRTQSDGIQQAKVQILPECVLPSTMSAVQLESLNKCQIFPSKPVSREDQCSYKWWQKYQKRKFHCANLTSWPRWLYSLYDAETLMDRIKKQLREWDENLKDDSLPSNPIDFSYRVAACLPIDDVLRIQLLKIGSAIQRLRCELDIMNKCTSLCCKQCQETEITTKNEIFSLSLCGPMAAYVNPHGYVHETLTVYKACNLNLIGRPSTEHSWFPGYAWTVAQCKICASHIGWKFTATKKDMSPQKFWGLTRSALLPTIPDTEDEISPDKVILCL

[4] = target: T1, Protein cereblon/Dual specificity protein kinase TTK; experiment: Protac activity at CRBN/TTK in human COLO 205 cells assessed as degradation of TTK measured after 6 hrs by Western blotting analysis; type: cell-based
Target sequence in this assay (Q96SW2 whole entry, one chain of several): as the sequence (Q96SW2 whole entry, looked up, one chain of several) above

[5] = target: T1, Protein cereblon/Dual specificity protein kinase TTK; experiment: Protac activity at CRBN/TTK in human HCT-116 cells assessed as degradation of TTK measured after 6 hrs by Western blotting analysis; type: cell-based
Target sequence in this assay (Q96SW2 whole entry, one chain of several): as the sequence (Q96SW2 whole entry, looked up, one chain of several) above

[6] = target: T1, Protein cereblon/Dual specificity protein kinase TTK; experiment: Protac activity at CRBN/TTK in human HCT-116 cells assessed as TTK degradation by measuring maximum degradation after 6 hrs by Western blotting analysis relative to control; type: cell-based
Target sequence in this assay (Q96SW2 whole entry, looked up, one chain of several): as above

[7] = target: T1, Protein cereblon/Dual specificity protein kinase TTK; experiment: Protac activity at CRBN/TTK in human LoVo cells assessed as degradation of TTK measured at […] for 6 hrs by Western blotting analysis; type: cell-based; conditions: dose lower 5.0 µM
Target sequence in this assay (Q96SW2 whole entry, looked up, one chain of several): as above

[8] = target: T1, Protein cereblon/Dual specificity protein kinase TTK; experiment: Protac activity at CRBN/TTK in human HCT-8 cells assessed as degradation of TTK measured at […] for 6 hrs by Western blotting analysis; type: cell-based; conditions: dose lower 5.0 µM
Target sequence in this assay (Q96SW2 whole entry, looked up, one chain of several): as above

[9] = target: T1, Protein cereblon/Dual specificity protein kinase TTK; experiment: Protac activity at CRBN/TTK in human […] cells assessed as degradation of TTK measured at […] for 6 hrs by Western blotting analysis; type: cell-based; conditions: dose lower 5.0 µM
Target sequence in this assay (Q96SW2 whole entry, looked up, one chain of several): as above

[10] = system: LoVo; experiment: Antiproliferative against human LoVo cells assessed as cell viability at 0.0001 to 100 uM at day 4 by CCK-8 assay; type: functional, cell-based; conditions: dose 0.0001-100 µM
[11] = system: HCT-8; experiment: Antiproliferative against human HCT-8 cells assessed as cell viability at 0.0001 to 100 uM at day 4 by CCK-8 assay; type: functional, cell-based; conditions: dose 0.0001-100 µM
[12] = system: HCT-29; experiment: Antiproliferative against human […] cells assessed as cell viability at 0.0001 to 100 uM at day 4 by CCK-8 assay; type: functional, cell-based; conditions: dose 0.0001-100 µM
[13] = target: T1, Protein cereblon/Dual specificity protein kinase TTK; experiment: Protac activity at CRBN/TTK in human COLO 205 cells assessed as induction of TTK degradation at 5 nM after 6 to 8 hrs post washout by Western blot analysis; type: cell-based; conditions: time 6-8 hrs
Target sequence in this assay (Q96SW2 whole entry, looked up, one chain of several): as above

[14] = target: T1, Protein cereblon/Dual specificity protein kinase TTK; experiment: Protac activity at CRBN/TTK in human COLO 205 cells assessed as induction of TTK degradation at 5 nM after 16 hrs post washout by Western blot analysis; type: cell-based
[15] = target: T1, Protein cereblon/Dual specificity protein kinase TTK; experiment: Protac activity at CRBN/TTK in human COLO 205 cells assessed as induction of TTK degradation in presence of N-[4-[2-[2-methoxy-4-(4-methylpiperazin-1-yl)anilino]-5-methyl-7-oxo-pyrido[2,3-d]pyrimidin-8-yl]cyclohexyl]propanamide after 6 hrs by Western blotting relative to control; type: cell-based
[16] = target: T1, Protein cereblon/Dual specificity protein kinase TTK; experiment: Protac activity at CRBN/TTK in human COLO 205 cells assessed as induction of TTK degradation in presence of MG132 incubated for 1 hr by Western blotting analysis relative to control; type: cell-based
[17] = system: COLO 205; experiment: Antiproliferative against human COLO 205 cells assessed as cell viability after 4 days by CCK-8 assay; type: functional, cell-based; conditions: COLO 205, 96 h
[18] = target: T1, Protein cereblon/Dual specificity protein kinase TTK; experiment: In vivo protac activity at CRBN/TTK in human COLO-205 cells xenografted in CB17-SCID mouse at 10 to 20 mg/kg, ip daily for 16 days by western blotting analysis; type: organism-based; conditions: dose 10-20 mg/kg, time 16.0 day
[19] = system: COLO 205; experiment: Antitumor activity against human COLO205 cells xenografted in CB17-SCID mouse assessed as tumor growth inhibition at 20 mg/kg, ip daily for 16 days relative to control; type: functional; conditions: COLO 205, ip, 384 h, time 16 day, read-out: TGI
[20] = Toxicity in CB17-SCID mouse xenografted with human […] cells assessed as effect on body weight at 10 to 20 mg/kg, ip daily for 16 days; type: organism-based, COLO 205; conditions: in vivo, 384 h, dose 10-20 mg/kg, time 16 day
[21] = system: COLO 205; experiment: Antitumor activity against human COLO205 cells xenografted in CB17-SCID mouse assessed as tumor growth inhibition at 10 mg/kg, ip daily for 16 days relative to control; type: functional, organism-based; conditions: time 16.0 day
[22] = target: T2, Dual specificity protein kinase TTK (Homo sapiens, UniProt P33981); experiment: Binding affinity to human TTK expressed in bacterial expression system assessed as dissociation constant at 100 nM by biochemical assay
T2 sequence (P33981 whole entry): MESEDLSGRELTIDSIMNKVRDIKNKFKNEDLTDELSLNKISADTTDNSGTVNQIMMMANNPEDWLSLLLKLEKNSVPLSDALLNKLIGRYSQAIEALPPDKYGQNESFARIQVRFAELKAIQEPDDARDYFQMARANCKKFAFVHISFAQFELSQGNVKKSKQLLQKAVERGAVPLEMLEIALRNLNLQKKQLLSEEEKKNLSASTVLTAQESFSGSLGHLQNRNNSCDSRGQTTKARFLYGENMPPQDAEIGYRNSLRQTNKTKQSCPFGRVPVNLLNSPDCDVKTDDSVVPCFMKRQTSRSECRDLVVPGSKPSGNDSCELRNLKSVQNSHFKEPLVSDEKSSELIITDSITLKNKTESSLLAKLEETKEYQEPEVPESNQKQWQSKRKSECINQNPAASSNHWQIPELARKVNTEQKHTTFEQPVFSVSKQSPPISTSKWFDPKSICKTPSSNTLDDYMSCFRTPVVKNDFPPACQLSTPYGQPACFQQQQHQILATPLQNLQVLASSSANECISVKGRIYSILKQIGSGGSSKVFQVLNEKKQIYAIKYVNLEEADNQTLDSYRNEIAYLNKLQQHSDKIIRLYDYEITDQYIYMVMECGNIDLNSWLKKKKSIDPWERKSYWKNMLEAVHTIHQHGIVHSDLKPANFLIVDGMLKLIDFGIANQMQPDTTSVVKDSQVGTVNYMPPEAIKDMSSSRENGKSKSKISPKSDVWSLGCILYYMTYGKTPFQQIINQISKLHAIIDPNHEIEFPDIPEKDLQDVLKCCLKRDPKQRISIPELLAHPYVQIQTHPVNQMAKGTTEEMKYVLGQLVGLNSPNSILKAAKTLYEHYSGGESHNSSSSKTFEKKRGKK

Row | Structure (SMILES) | half-life [1] [h] | AUC [2] [ng·h/mL] | Emax [3] [%] | DC50 [4] [nM] | DC50 [5] [nM] | Emax [6] [%] | Activity [7] | Activity [8] | Activity [9] | Activity [10] | Activity [11] | Activity [12] | Activity [13] | Activity [14] | Activity [15] | Activity [16] | IC50 [17] [nM] | Activity [18] | inhibition in vivo at 20 mg/kg [19] [%] | Activity [20] | also measured
1 | CCC(=O)N[C@H]1CC[C@@H](n2c(=O)cc(C)c3cnc(Nc4ccc(N5CCN(C(=O)CCCC#Cc6ccc7c(c6)CN(C6CCC(=O)NC6=O)C7=O)CC5)cc4OC)nc32)CC1 (some centres undefined) | 4.3 | 2240 | 88 | 1.7 | 5.8 | 80 | Dose-Dependent Effect | Dose-Dependent Effect | Dose-Dependent Effect | Dose-Dependent Effect | Dose-Dependent Effect | Dose-Dependent Effect | Active | inactive | inactive | inactive | 100 | Active | 46 | Non-Toxic | Activity [21]: inactive
2 | CCC(=O)N[C@H]1CC[C@@H](n2c(=O)cc(C)c3cnc(Nc4ccc(N5CCN(C)CC5)cc4OC)nc32)CC1 | – | – | – | – | – | – | – | – | – | – | – | – | – | – | – | – | 800 | – | – | – | Kd [22]: 0.7 nM
3 | CCC(=O)N[C@H]1CC[C@@H](n2c(=O)cc(C)c3cnc(Nc4ccc(N5CCN(C(=O)CCCCCC#Cc6ccc7c(c6)C(=O)N(C6CCC(=O)NC6=O)C7)CC5)cc4OC)nc32)CC1 (some centres undefined) | 3.2 | 2330 | 82 | 3.1 | 12.4 | 77 | Dose-Dependent Effect | Dose-Dependent Effect | Dose-Dependent Effect | Dose-Dependent Effect | Dose-Dependent Effect | Dose-Dependent Effect | Active | inactive | inactive | inactive | 200 | Active | 36.7 | Non-Toxic | Activity [21]: inactive
